# Test results published in publication PMC6713120, “Kinetic and thermodynamic characterisation of HIV-protease inhibitors against E35D↑G↑S mutant in the South African HIV-1 subtype C protease” (Journal of Enzyme Inhibition and Medicinal Chemistry, 2019).
# Several values for one entry are separate records, joined by “and”; a condition that tells them apart may be missing. Identical values can stand only once.
# Assays:
# [1] = target: T1, E35D↑G↑S mutant HIV-1 subtype C protease (Human immunodeficiency virus type 1 group M subtype C, UniProt Q994Q3, D118E/E93D/I94G/INS93GS); conditions: mutant-wild type
# Experimental: Quenching experiments were performed according to the method reported by Maseko et al.[15]. Spectrofluorimetry was used to determine structural changes induced in HIV protease by the interaction of the inhibitors with the purified enzymes using Jasco V-630 spectrofluorimeter (Jasco International co., LTD, Japan). The excitation wavelength was fixed at 295 nm, the wavelength at which tryptophan absorbs and the emission wavelength measured was at […]. The change in fluorescence of a solution was monitored over 10 min, as increasing concentrations of inhibitors were added to a reaction mixture of HIV protease in 50 mM sodium acetate, 1 M NaCl, pH 5 in a final volume of […]. All fluorescence quenching experiments were performed at 4 different temperatures (293 K, 298 K, 303 K, 310 K). The following equations are applicable. (1) F0/F=1+KsvQ (2) lnKsv=−(ΔH/RT)+(ΔS/R) where F0 and F are the florescence in the absence and presence of quencher, Ksv is the Stern Volmer constant, Q is the quencher (drug), ΔH is the enthalpy, ΔS is entropy, R is the gas constant and T is the experimental temperature. The equation is developed from Van’t Hoff relationship. (3) ΔG=RTlnKi
# Thermodynamic parameters were calculated from the Stern Volmer and Van’t Hoff plots (Figures S3 and S4). From these plots, ΔH and ΔS values for each drug were calculated. ΔG values were calculated from the Ki values from Equation (3).
# [2] = target: T1, E35D↑G↑S mutant HIV-1 subtype C protease; experiment: biochemical; conditions: for IC50: E35D↑G↑S IC50, mutant E35D↑G↑S, n = 3; for ΔG (Gibbs free binding energy): calculated from Ki, ΔG=RTlnKi; for Ki ratio / reduced activity in comparison to the wildtype: mutant versus wild type; for ΔΔG: mutant-wild type; for log vitality: v = (Ki × Kcat/Km)MUT/(Ki × Kcat/Km)WT, wild type as reference
# Experimental: (§1) Enzymatic activity of the HIV-1 C-SA and mutant (E35D↑G↑S) protease was measured by following the hydrolysis of the HIV-PR chromogenic substrate, Lys-Ala-Arg-Val-Nle-nPhe-Glu-Ala-Nle-NH2 as reported before[13]^,[15]. The substrate resembles the conserved protease cleavage site, KARVL/AEAM[8] between the capsid protein and the […] in the Gag-polyprotein precursor. Hydrolysis of the HIV chromogenic substrate was characterised by the decrease in absorbance at 300 nm. Catalytic properties such as the Km, kcat, and kcat/Km of the proteases were determined. All catalytic activity assays were performed using a Jasco V-630 spectrophotometer (Jasco International co., LTD, Japan).
# (§2) This was done by monitoring the rate of chromogenic substrate hydrolysis using 2 µM protease in 50.0 mM sodium acetate, 0.1 M NaCl, pH 5.0, and (0–250 µM) substrate in increasing amounts of inhibitor (0–10 nM).
# This is done by introducing the term “vitality” which is a measure of resistance. Vitality, v, is defined as v = (Ki × Kcat/Km)MUT/(Ki × Kcat/Km)WT, and predicts the therapeutic effect of a given protease inhibitor.
# (§3) The Ki values were estimated using a competitive inhibition equation (Equation 1) according to Williams et al..
# [3] = target: wild type C-SA HIV protease (Human immunodeficiency virus type 1 group M subtype C, UniProt Q994Q3); experiment: Inhibition of chromogenic substrate hydrolysis by wild type C-SA HIV protease; assay type: biochemical, HIV-1 subtype C; conditions: for IC50: wild type C-SA protease, n = 3, read-out: WT IC50; for Ki / ΔG (Gibbs free binding energy): wild type; for Ki: 37 °C, pH 5.0; for ΔG (Gibbs free binding energy): calculated from Ki, ΔG=RTlnKi
# Experimental: as §1, §2, §3
SMILES,ΔΔH [1],−TΔΔS [1],IC50 [2] [nM],ΔG (Gibbs free binding energy) ([2]; mutant E35D↑G↑S) [kcal/mol],"log Ki ([2]; mutant E35D↑G↑S, logarithm of Ki in nM, 37 °C, pH 5.0)",Ki ratio [2],reduced activity in comparison to the wildtype [2] [folds],ΔΔG [2],log vitality [2],IC50 [3] [nM],Ki [2] [nM],Ki [3] [nM],ΔG (Gibbs free binding energy) [3] [kcal/mol]
"CC(C)CN(C[C@@H](O)[C@H](Cc1ccccc1)NC(=O)O[C@H]1CCOC1)S(=O)(=O)c1ccc(N)cc1 [APV, Amprenavir]",12.9 ± 0.8,12.1 ± 0.2,4.1 ± 0.05,-13.12,negative,4 ± 0.1,4,0.80 kcal/mol and 0.80 ± 0.1 kcal/mol,0.36,0.81 ± 0.04,,,
"COC(=O)N[C@H](C(=O)N[C@@H](Cc1ccccc1)[C@@H](O)CN(Cc1ccc(-c2ccccn2)cc1)NC(=O)[C@@H](NC(=O)OC)C(C)(C)C)C(C)(C)C [ATV, Atazanavir]",3.1 ± 0.1,−1.5 ± 0.1,685 ± 3,,,1828 ± 2.0,,4.6 ± 0.2 kcal/mol,highest vitality value,1.07 ± 0.08,145,0.0776,-14.35
"CC(C)CN(C[C@@H](O)[C@H](Cc1ccccc1)NC(=O)O[C@H]1CO[C@H]2OCC[C@H]21)S(=O)(=O)c1ccc(N)cc1 [DRV, Darunavir]",2.1 ± 0.0,−1.8 ± 0.1,154 ± 2,,,560 ± 3.0,,3.9 ± 0.5 kcal/mol,around two,1.07 ± 0.04,,,
"CC(C)(C)NC(=O)[C@@H]1CN(Cc2cccnc2)CCN1C[C@@H](O)C[C@@H](Cc1ccccc1)C(=O)N[C@H]1c2ccccc2C[C@H]1O [IDV, Indinavir]",−0.1 ± 0.0,1.8 ± 0.3,33.6 ± 1,,,20 ± 0.5,,1.9 ± 0.6 kcal/mol,~1.00,3.44 ± 0.06,,,
"Cc1cccc(C)c1OCC(=O)N[C@@H](Cc1ccccc1)[C@@H](O)C[C@H](Cc1ccccc1)NC(=O)[C@H](C(C)C)N1CCCNC1=O [LPV, Lopinavir]",−13.1 ± 0.9,14.7 ± 0.1,51.7 ± 0.8,,,12 ± 0.1,,1.6 ± 0.3 kcal/mol,~1.00,2.99 ± 0.01,,,
"Cc1c(O)cccc1C(=O)N[C@@H](CSc1ccccc1)[C@H](O)CN1C[C@H]2CCCC[C@H]2C[C@H]1C(=O)NC(C)(C)C [NFV, Nelfinavir]",2.3 ± 0.0,−1.8 ± 0.0,1401 ± 3,,,532 ± 2,,4.1 ± 0.2 kcal/mol,around two,1.99 ± 0.05,174,,
"CC(C)c1nc(CN(C)C(=O)N[C@H](C(=O)N[C@@H](Cc2ccccc2)C[C@H](O)[C@H](Cc2ccccc2)NC(=O)OCc2cncs2)C(C)C)cs1 [RTV, Ritonavir]",6.8 ± 0.1,5.8 ± 0.2,,-12.96,,,5,0.93 kcal/mol and 0.9 ± 0.1 kcal/mol,0.30,,,,
"CC(C)(C)NC(=O)[C@@H]1C[C@@H]2CCCC[C@@H]2CN1C[C@@H](O)[C@H](Cc1ccccc1)NC(=O)[C@H](CC(N)=O)NC(=O)c1ccc2ccccc2n1 [SQV, Saquinavir]",2.9 ± 0.1,0.4 ± 0.0,114 ± 1.2,,,215 ± 2.0,,3.3 ± 0.5 kcal/mol,around two,0.77 ± 0.05,,,
"CCC[C@@]1(CCc2ccccc2)CC(O)=C([C@H](CC)c2cccc(NS(=O)(=O)c3ccc(C(F)(F)F)cn3)c2)C(=O)O1 [TPV, Tipranavir]",3.2 ± 0.2,−7.1 ± 0.1,203 ± 2.6,,,292 ± 4.0,,3.7 ± 0.1 kcal/mol,around two,1.55 ± 0.02,,0.513,-13.19
